What was measured:
Myeloperoxidase (MPO) = Myeloperoxidase (MPO) activity in mouse tongues; type: in vivo, ICR mice; details: 12 days after irradiation
Text: The scoring of oral mucositis was based on a modification of the method of Sonis et al. To assess the severity of oral mucositis, mice were anesthetized with isoflurane every day. The oral mucositis score was: 0=normal; 1=partial hyperemia, erythema and swelling; 2=overall hyperemia, erythema and swelling; 3=epidermolysis, hyperemia and erythema; 4=extensive epidermolysis and bleeding; 5=bleeding and abscesses. Myeloperoxidase (MPO) activity is a marker for neutrophils in inflamed tissue. MPO activity was measured in mouse tongues using a modification of the method of Chen et al. After mice had been killed by cervical dislocation 12 days after irradiation, tongue samples (n=10 per group) were removed and stored at −70° C. until required for assay. […] MPO activity was measured using a Microplate Reader (NJ-2300; Biotec, Tokyo, Japan) at 450 nm. MPO activity was calculated by measuring the slope of absorbance calibrated using MPO standards (Wako Biochemicals) and expressed as MPO/g tongue. […] TBARS levels were measured using the Microplate Reader (Biotec) at 540 nm. TBARS levels were calculated by measuring the slope of absorbance calibrated using TBARS standards and expressed as TBARS/g tongue. […] The number of TUNEL-positive cells on the tongue tips were counted and expressed as a percentage. […] Data were analyzed using one-way analysis of variance (ANOVA) followed by the Steel-Dwass test. […]

mouse tongues = assay: Histopathology (H&E) of tongue specimens after X-ray irradiation; type: in vivo, ICR mice; details: 12 days post-irradiation
peripheral blood = assay: Peripheral blood counts after focal irradiation; type: in vivo, Gottingen mini-pigs
Text: Blood samples were collected via the ear vein into sample tubes containing ethylenediaminetetraacetic acid at different time points (before irradiation, 3, 7, 21, and 35 days after irradiation). Peripheral eosinophils were automatically counted using a Hemavet System (Drew Scientific, UK).

cyclooxygenase-2 (COX-2) = assay: COX-2 immunohistochemistry of irradiated skin; type: in vivo, Gottingen mini-pigs; details: 7, 21 and 35 days after irradiation
Protocol: After incubation in normal horse serum for 60 min to prevent nonspecific binding, the skin sections were incubated with mouse anti-nuclear factor (NF)-κB (sc-109, 1:200; Santa Cruz Biotechnology, Santa Cruz, CA, USA) and mouse anti-COX-2 (18-7379, 1:200; Zymed, USA) in phosphate buffered saline-Tween (PBS-T overnight at 4° C. The sections were subsequently incubated with biotinylated horse anti-mouse IgG (VECTASTAIN Elite ABC Kit; Vector Laboratories, USA). The immunoreactivity was assessed using the avidin-biotin peroxidase complex (VECTASTAIN Elite ABC Kit; Vector Laboratories). The peroxidase reaction was developed using a diaminobenzidine substrate kit (DAB Substrate Kit SK-4100; Vector Laboratories). As a control, the primary antibodies were omitted from the immunohistochemical analysis of a few test sections in each experiment. The sections were then counterstained with hematoxylin before being mounted.

[1] = 21 and 35 days after irradiation, decrease not significant

COc1cc2c(CCCCN=C=S)c[nH]c2cc1O [6OHM-6-HITC]
MPO activity vs. control group (Myeloperoxidase (MPO); 30 mg/kg i.p.): significantly lower
MPO activity vs. control group (Myeloperoxidase (MPO); 300 mg/kg i.p.): significantly lower
degree of epidermolysis of the tongue (mouse tongues): preserved
infiltration of inflammatory cells (mouse tongues): decreased
eosinophils in the blood (peripheral blood; [1]): decreased
neutrophils in the blood (peripheral blood; [1]): decreased
radioprotective effect on peripheral blood (white blood cell count) (peripheral blood; initially (7 days after exposure)): did not show a radioprotective effect
COX-2 expression in the irradiated skin vs. vehicle-treated skin (cyclooxygenase-2 (COX-2)): lower

From patent US12178800B2, “Sulforaphane-melatonin-like compound” (priority 2018, dated 2024)
